In general, IC50 refers to the concentration that inhibits the measured activity by half.

This experiment addresses T1, PDK-1 (Homo sapiens, UniProt O15530).
T1 sequence (O15530 1-556): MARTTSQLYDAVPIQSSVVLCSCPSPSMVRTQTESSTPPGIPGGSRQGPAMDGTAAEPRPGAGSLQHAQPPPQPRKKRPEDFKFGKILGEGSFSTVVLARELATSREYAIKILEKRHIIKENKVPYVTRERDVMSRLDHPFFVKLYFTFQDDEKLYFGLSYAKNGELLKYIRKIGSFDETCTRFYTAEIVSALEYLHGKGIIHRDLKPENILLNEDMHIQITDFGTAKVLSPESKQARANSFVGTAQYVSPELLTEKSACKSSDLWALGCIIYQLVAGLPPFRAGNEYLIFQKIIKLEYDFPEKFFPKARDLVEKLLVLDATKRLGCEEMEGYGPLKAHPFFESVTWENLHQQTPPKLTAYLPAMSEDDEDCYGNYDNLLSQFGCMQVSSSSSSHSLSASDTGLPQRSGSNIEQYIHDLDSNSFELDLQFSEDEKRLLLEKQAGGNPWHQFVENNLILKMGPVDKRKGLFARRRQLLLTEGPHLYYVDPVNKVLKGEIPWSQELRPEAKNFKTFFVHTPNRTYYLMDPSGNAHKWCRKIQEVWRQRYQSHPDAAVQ
In words: PDK-1 kinase inhibition ELISA assay (phosphorylation of His6-tagged SGK1 S422D by PDK-1). The class given is biochemical. The note with it: PDK-1 ELISA, Table 11; read-out: Average IC50. Background: ELISA stands for enzyme-linked immunosorbent assay.
Take `COc1cc2ncc3c(N)nc(-c4cncc(OC[C@@H](N)CNC5CCC(O)CC5)c4)cc3c2cc1OC` (stereo partly drawn) [Ib-91, 4-{[(2S)-2-amino-3-{[5-(4-amino-8,9-dimethoxybenzo[c][2,7]naphthyridin-2-yl)pyridin-3-yl]oxy}propyl]amino}cyclohexanol]: the IC50 came to 40 nM.

As for `COc1cc2ncc3c(N)nc(-c4cncc(OC[C@@H](N)CNC(C)(C)c5cccnc5)c4)cc3c2cc1OC` [Ib-93, (2S)-3-{[5-(4-amino-8,9-dimethoxybenzo[c][2,7]naphthyridin-2-yl)pyridin-3-yl]oxy}-N1-(1-methyl-1-pyridin-3-ylethyl)propane-1,2-diamine], the IC50 amounted to 6 nM.

Consider `COc1cc2ncc3c(N)nc(-c4cncc(OC[C@@H](N)CNC(C)(C)c5ccccn5)c4)cc3c2cc1OC` [Ib-94, (2S)-3-{[5-(4-amino-8,9-dimethoxybenzo[c][2,7]naphthyridin-2-yl)pyridin-3-yl]oxy}-N1-(1-methyl-1-pyridin-2-ylethyl)propane-1,2-diamine], for which the IC50 is 4 nM.

Take `COc1cc2ncc3c(N)nc(-c4cncc(OC[C@@H](N)CNCC5CCCCC5)c4)cc3c2cc1OC` [Ib-95, (2S)-3-{[5-(4-amino-8,9-dimethoxybenzo[c][2,7]naphthyridin-2-yl)pyridin-3-yl]oxy}-N1-(cyclohexylmethyl)propane-1,2-diamine]: the IC50 stood at 53 nM.

Regarding `COc1cc2ncc3c(N)nc(-c4cncc(OC[C@@H](N)CNC5CCOCC5)c4)cc3c2cc1OC` [Ib-96, (2S)-3-{[5-(4-amino-8,9-dimethoxybenzo[c][2,7]naphthyridin-2-yl)pyridin-3-yl]oxy}-N1-(tetrahydro-2H-pyran-4-yl)propane-1,2-diamine], the IC50 was determined as 26 nM.

As to `COc1cc2ncc3c(N)nc(-c4cncc(OC[C@@H](N)CNCCc5ccncc5)c4)cc3c2cc1OC` [Ib-97, (2S)-3-{[5-(4-amino-8,9-dimethoxybenzo[c][2,7]naphthyridin-2-yl)pyridin-3-yl]oxy}-N1-(2-pyridin-4-ylethyl)propane-1,2-diamine], the IC50 is 24 nM.

Consider `COc1cc2ncc3c(N)nc(-c4cncc(OC[C@@H](N)CN5CCC[C@H]5c5nccs5)c4)cc3c2cc1OC` [Ib-98, 2-[5-({(2S)-2-amino-3-[(2S)-2-(1,3-thiazol-2-yl)pyrrolidin-1-yl]propyl}oxy)pyridin-3-yl]-8,9-dimethoxybenzo[c][2,7]naphthyridin-4-amine], for which the IC50 stood at 10 nM.

Regarding `COc1cc2ncc3c(N)nc(-c4cncc(OC[C@@H](N)CNC5CCC5)c4)cc3c2cc1OC` [Ib-100, (2S)-3-{[5-(4-amino-8,9-dimethoxybenzo[c][2,7]naphthyridin-2-yl)pyridin-3-yl]oxy}-N1-cyclobutylpropane-1,2-diamine], the IC50 was 63 nM.

For `COc1cc2ncc3c(N)nc(-c4cncc(OC[C@@H](N)CNC5CCCC5)c4)cc3c2cc1OC` [Ib-101, (2S)-3-{[5-(4-amino-8,9-dimethoxybenzo[c][2,7]naphthyridin-2-yl)pyridin-3-yl]oxy}-N1-cyclopentylpropane-1,2-diamine], the IC50 was 92 nM.

In the case of `COc1cc2ncc3c(N)nc(-c4cncc(OC[C@@H](N)CN5CCC[C@@H]5c5nccs5)c4)cc3c2cc1OC` [Ib-102, 2-[5-({(2S)-2-amino-3-[(2R)-2-(1,3-thiazol-2-yl)pyrrolidin-1-yl]propyl}oxy)pyridin-3-yl]-8,9-dimethoxybenzo[c][2,7]naphthyridin-4-amine], the IC50 came out at 38 nM.

`COc1cc2ncc3c(N)nc(-c4cncc(OC[C@@H](N)CNCC5(c6ccccc6)CCOCC5)c4)cc3c2cc1OC` [Ib-104, (2S)-3-{[5-(4-amino-8,9-dimethoxybenzo[c][2,7]naphthyridin-2-yl)pyridin-3-yl]oxy}-N1-[(4-phenyltetrahydro-2H-pyran-4-yl)methyl]propane-1,2-diamine]: the IC50 was found to be 25 nM.

Turning to `COc1cc2ncc3c(N)nc(-c4cncc(OC[C@@H](N)CNCC5(c6ccccc6)CCCC5)c4)cc3c2cc1OC` [Ib-105, (2S)-3-{[5-(4-amino-8,9-dimethoxybenzo[c][2,7]naphthyridin-2-yl)pyridin-3-yl]oxy}-N1-[(1-phenylcyclopentyl)methyl]propane-1,2-diamine], the IC50 turned out to be 41 nM.

Regarding `COc1cc2ncc3c(N)nc(-c4cncc(OC[C@@H](N)CNCC5(c6ccccc6)CC5)c4)cc3c2cc1OC` [Ib-106, (2S)-3-{[5-(4-amino-8,9-dimethoxybenzo[c][2,7]naphthyridin-2-yl)pyridin-3-yl]oxy}-N1-[(1-phenylcyclopropyl)methyl]propane-1,2-diamine], the IC50 amounted to 32 nM.

As for `COc1cc2ncc3c(N)nc(-c4cncc(OC[C@@H](N)CN5CCN(c6ccncc6)CC5)c4)cc3c2cc1OC` [Ib-107, 2-(5-{[(2S)-2-amino-3-(4-pyridin-4-ylpiperazin-1-yl)propyl]oxy}pyridin-3-yl)-8,9-dimethoxybenzo[c][2,7]naphthyridin-4-amine], the IC50 was 42 nM.

As to `COc1cc2ncc3c(N)nc(-c4cncc(OC[C@@H](N)CNC(C)(C)c5ccncc5)c4)cc3c2cc1OC` [Ib-108, (2S)-3-{[5-(4-amino-8,9-dimethoxybenzo[c][2,7]naphthyridin-2-yl)pyridin-3-yl]oxy}-N1-(1-methyl-1-pyridin-4-ylethyl)propane-1,2-diamine], the IC50 stood at 7 nM.

Consider `COc1cc2ncc3c(N)nc(-c4cncc(OC[C@@H](N)CNCC(F)(F)F)c4)cc3c2cc1OC` [Ib-109, (2S)-3-{[5-(4-amino-8,9-dimethoxybenzo[c][2,7]naphthyridin-2-yl)pyridin-3-yl]oxy}-N1-(2,2,2-trifluoroethyl)propane-1,2-diamine], for which the IC50 was determined as 14 nM.

Consider `COc1cc2ncc3c(N)nc(-c4cncc(OC[C@@H](N)CN5CCCC5)c4)cc3c2cc1OC` [Ib-110, 2-(5-{[(2S)-2-amino-3-pyrrolidin-1-ylpropyl]oxy}pyridin-3-yl)-8,9-dimethoxybenzo[c][2,7]naphthyridin-4-amine], for which the IC50 amounted to 14 nM.

As for `COc1cc2ncc3c(N)nc(-c4cncc(OC[C@@H](N)CNc5ccc(N)cc5)c4)cc3c2cc1OC` [Ib-111, N-[(2S)-2-amino-3-{[5-(4-amino-8,9-dimethoxybenzo[c][2,7]naphthyridin-2-yl)pyridin-3-yl]oxy}propyl]benzene-1,4-diamine], the IC50 was 81 nM.

For the molecule `COc1cc2ncc3c(N)nc(-c4cncc(OC[C@@H](N)CN(C)c5cccc(Cl)c5)c4)cc3c2cc1OC` [Ib-112, (2S)-3-{[5-(4-amino-8,9-dimethoxybenzo[c][2,7]naphthyridin-2-yl)pyridin-3-yl]oxy}-N1-(3-chlorophenyl)-N1-methylpropane-1,2-diamine], the IC50 is 40 nM.

As for `COc1cc2ncc3c(N)nc(-c4cncc(OC[C@@H](N)CNc5nccc(C)n5)c4)cc3c2cc1OC` [Ib-113, (2S)-3-{[5-(4-amino-8,9-dimethoxybenzo[c][2,7]naphthyridin-2-yl)pyridin-3-yl]oxy}-N1-(4-methylpyrimidin-2-yl)propane-1,2-diamine], the IC50 is 20 nM.

Turning to `COc1cc2ncc3c(N)nc(-c4cncc(OC[C@@H]5CN=C(Nc6ccccc6)N5)c4)cc3c2cc1OC` [Ib-114, 2-(5-{[(5S)-2-anilino-4,5-dihydro-1H-imidazol-5-yl]methoxy}pyridin-3-yl)-8,9-dimethoxybenzo[c][2,7]naphthyridin-4-amine], the IC50 worked out at 82 nM.

Turning to `COc1cc2ncc3c(N)nc(-c4cncc(OC[C@@H](N)COc5ccccc5F)c4)cc3c2cc1OC` [Ib-141, 2-(5-{[(2R)-2-amino-3-(2-fluorophenoxy)propyl]oxy}pyridin-3-yl)-8,9-dimethoxybenzo[c][2,7]naphthyridin-4-amine], the IC50 was determined as 10 nM.

`COc1cc2ncc3c(N)nc(-c4cncc(OC[C@@H](N)COc5ccc(F)c(F)c5)c4)cc3c2cc1OC` [Ib-143, 2-(5-{[(2S)-2-amino-3-(3,4-difluorophenoxy)propyl]oxy}pyridin-3-yl)-8,9-dimethoxybenzo[c][2,7]naphthyridin-4-amine]: the IC50 came to 7 nM.

As for `COc1cc2ncc3c(N)nc(-c4cncc(OC[C@@H](N)COc5cc(C(F)(F)F)ccc5F)c4)cc3c2cc1OC` [Ib-144, 2-[5-({(2R)-2-amino-3-[2-fluoro-5-(trifluoromethyl)phenoxy]propyl}oxy)pyridin-3-yl]-8,9-dimethoxybenzo[c][2,7]naphthyridin-4-amine], the IC50 was found to be 64 nM.

Turning to `COc1cc2ncc3c(N)nc(-c4cncc(OC[C@@H](N)COc5ccc(C(F)(F)F)cn5)c4)cc3c2cc1OC` [Ib-145, 2-(5-{[(2R)-2-amino-3-{[5-(trifluoromethyl)pyridin-2-yl]oxy}propyl]oxy}pyridin-3-yl)-8,9-dimethoxybenzo[c][2,7]naphthyridin-4-amine], the IC50 worked out at 4 nM.

With `COc1cc2ncc3c(N)nc(-c4cncc(OC[C@@H](N)COc5nc6ccccc6[nH]5)c4)cc3c2cc1OC` [Ib-146, 2-(5-{[(2R)-2-amino-3-(1H-benzimidazol-2-yloxy)propyl]oxy}pyridin-3-yl)-8,9-dimethoxybenzo[c][2,7]naphthyridin-4-amine], the IC50 was found to be 2 nM.

Take `COc1cc2ncc3c(N)nc(-c4cncc(OC[C@@H](N)COc5nccc6ccccc56)c4)cc3c2cc1OC` [Ib-147, 2-(5-{[(2R)-2-amino-3-(isoquinolin-1-yloxy)propyl]oxy}pyridin-3-yl)-8,9-dimethoxybenzo[c][2,7]naphthyridin-4-amine]: the IC50 came to 10 nM.

The record behind these values is patent US20080293712A1, “Benzo[C][2,7]Naphtyridine Derivatives, Methods of Making Thereof and Methods of Use Thereof” (WYETH, priority 2007, published 2008).
